Measured values: US20180193372A1, “NOVEL BIOMARKER FOR DIAGNOSING RESISTANCE TO ANTICANCER AGENT FOR BILLARY TRACT CANCER AND USE THEREOF” (COWELL BIODIGM CO., LTD., priority 2015, published 2018)

Columns and labels:
[1] = tested on: SNU1196/GR cells; assay: MTT assay of anticancer agent susceptibility after inhibiting TAGLN2 expression; format: cell-based, human; settings: for change in susceptibility to anticancer agent when TAGLN2 expression was inhibited: TAGLN2 siRNA transfection
Experimental: As siRNA for TAGLN2, sc-106633 produced by Santa Cruz Biotechnology was used, and as control siRNA, sc-37007 (Santa Cruz Biotechnology) was used. An anticancer agent (gemcitabine)-resistant biliary tract cancer cell line SNU1196/GR was transfected with each of control siRNA and TAGLN2 siRNA using a lipofectamine RNAiMAX transfection reagent (Invitrogen), and after 24 hours, was cultured for 72 hours by treating with gemcitabine at various concentrations. The cell line reacted with an MTT solution (Sigma-Aldrich) for 3 hours, and then absorbance at 570 nm was measured by treating with DMSO to determine whether the anticancer agent resistance was overcome through inhibition of TAGLN2 expression in the anticancer agent-resistant biliary tract cancer cell line. The inhibition of the expression by TAGLN2 siRNA was confirmed by western blotting after 72 hours of the transfection.

[2] = tested on: SNU1196/P cells; assay: MTT assay with gemcitabine, parent cell line; format: cell-based; settings: Homo sapiens, 10 nM stated to be lower than the IC50, read-out: IC50 concentration of parent cell line
Experimental: (§1) To create an anticancer agent-resistant biliary tract cancer cell line, a SNU1196 cell line was treated with gemcitabine at various concentrations and then subjected to MTT assay to calculate an IC50 value, and the cells were treated with gemcitabine at a concentration of IC50 for 3 days. After 3 days, when the cells were recovered after being cultured in a drug-free growth medium [10% fetal bovine serum (FBS; Hyclone)-containing RPMI1640 (Invitrogen Gibco)], the cells were recovered by treating with gemcitabine at double the IC50 concentration for 3 days, and an anticancer agent-resistant cell line (named SNU1196/GR) was established by repeating such a cell culturing procedure for 1 year. Whether the resistance to the anticancer agent was acquired was confirmed by MTT assay.
Cells derived from biliary tract cancer cell line SNU1196 and anticancer agent-resistant biliary tract cancer cell line SNU1196/GR were attached to 96-well plates at 3×10^3 cells/well, and the following day, the cells were cultured for 72 hours by treating with gemcitabine at various concentrations. […] After 3 hours, the MTT solution was removed, and then absorbance was measured at 570 nm by adding dimethyl sulfoxide (DMSO) at 100 μl/well.

[3] = tested on: SNU1196/GR cells; assay: MTT assay confirming resistance to anticancer agent (gemcitabine), resistant line; format: cell-based, human; settings: SNU1196/GR vs SNU1196/P, 72 hours
Experimental: as §1, with “assay. Cells derived from biliary tract cancer cell line SNU1196 and anticancer agent-resistant biliary tract cancer cell line SNU1196/GR were attached to 96-well plates at 3×10^3 cells/well, and the following day, the cells were cultured for 72 hours by treating with gemcitabine at various concentrations. […] After 3 hours, the MTT solution was removed, and then absorbance was measured at 570 nm by adding dimethyl sulfoxide (DMSO) at 100 μl/well.” for “assay.”

SMILES	change in susceptibility to anticancer agent when TAGLN2 expression was inhibited [1]	further results
O=c1[nH]cc(F)c(=O)[nH]1 [5-FU, 5-fluorourasil]	increased	–
N.N.O=C([O-])C1(C(=O)[O-])CCC1.[Pt+2] [carboplatin]	increased	–
N.N.[Cl][Pt][Cl] [cisplatin]	increased	–
C#Cc1cccc(Nc2ncnc3cc(OCCOC)c(OCCOC)cc23)c1 [erlotinib]	did not cause changes	–
COc1cc([C@@H]2c3cc4c(cc3[C@@H](O[C@@H]3O[C@@H]5CO[C@@H](C)O[C@H]5[C@H](O)[C@H]3O)[C@H]3COC(=O)[C@H]23)OCO4)cc(OC)c1O [etoposide]	did not cause changes	–
Nc1ccn([C@@H]2O[C@H](CO)[C@@H](O)C2(F)F)c(=O)n1 [gemcitabine]	–	IC50 [2]: > 0.01 µM; increase of anticancer agent susceptibility ([1]; co-treatment with TAGLN2 siRNA, gemcitabine 10 nM): 43%; IC50 value of SNU1196/GR cells for gemcitabine relative to parent cell line [3]: 100 times
CCc1c2c(nc3ccc(OC(=O)N4CCC(N5CCCCC5)CC4)cc13)-c1cc3c(c(=O)n1C2)COC(=O)[C@]3(O)CC [irinotecan]	did not cause changes	–
O=C1[O][Pt]2([NH][C@@H]3CCCC[C@H]3[NH]2)[O]C1=O [oxaliplatin]	increased	–
